The target of this test is BRAF V600E (Homo sapiens, UniProt P15056, V600E). The test is described as follows: HiBiT cellular BRAF^V600E degradation assay. As to conditions: for DC50: concentration at which 50% of total cellular BRAF^V600E is degraded; for Emax: read-out: HiBit 24 h Emax. It counts as cell-based. A general note: The HiBiT peptide binds its large partner to form an active luciferase.

Setting [1] is: A375.10 cells, 24 h, residual protein remaining in the cell.

Like-named read-outs stand apart in the source and are kept apart here.

The results in this text go back to patent US12486253B2, “Therapeutics for the degradation of mutant BRAF” (C4 THERAPEUTICS, INC., priority 2021, dated 2025).

Sequence of BRAF V600E (P15056 whole entry V600E): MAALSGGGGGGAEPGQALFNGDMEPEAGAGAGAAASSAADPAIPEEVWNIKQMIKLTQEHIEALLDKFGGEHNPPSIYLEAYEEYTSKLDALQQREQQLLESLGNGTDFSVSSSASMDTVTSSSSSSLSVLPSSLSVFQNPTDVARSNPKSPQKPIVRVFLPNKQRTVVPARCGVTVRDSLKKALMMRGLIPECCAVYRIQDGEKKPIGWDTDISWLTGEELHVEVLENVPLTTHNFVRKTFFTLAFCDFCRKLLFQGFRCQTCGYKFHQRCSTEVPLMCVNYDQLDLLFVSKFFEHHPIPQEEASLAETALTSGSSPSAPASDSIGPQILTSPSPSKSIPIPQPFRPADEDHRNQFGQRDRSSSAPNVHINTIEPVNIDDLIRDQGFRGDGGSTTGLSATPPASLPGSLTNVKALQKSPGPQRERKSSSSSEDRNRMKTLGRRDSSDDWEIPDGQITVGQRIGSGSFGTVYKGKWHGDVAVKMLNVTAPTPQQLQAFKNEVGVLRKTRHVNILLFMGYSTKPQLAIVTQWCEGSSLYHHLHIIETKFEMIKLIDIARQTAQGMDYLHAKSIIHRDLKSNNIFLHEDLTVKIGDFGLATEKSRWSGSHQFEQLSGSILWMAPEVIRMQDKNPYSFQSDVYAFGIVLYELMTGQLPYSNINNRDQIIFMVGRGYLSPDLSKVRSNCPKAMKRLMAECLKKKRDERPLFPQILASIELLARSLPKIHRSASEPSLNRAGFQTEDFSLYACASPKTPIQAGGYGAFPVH

As a reminder, the DC50 is the midpoint of the concentration-degradation curve. Low values mean a more potent degrader, high ones a less potent degrader. By Emax is commonly meant the greatest response seen or fitted, relative to the assay's reference. As to `CCN(C)S(=O)(=O)Nc1ccc(F)c(Oc2ccc3ncn([C@H]4CCC5(CCN(C(=O)CC6(O)CCN(c7ccc8c(N9CCC(=O)NC9=O)nn(C)c8c7F)CC6)CC5)C4)c(=O)c3c2)c1C#N` [Example 172, 6-[2-cyano-3-[[ethyl(methyl)sulfamoyl]amino]-6-fluorophenoxy]-3-[(3S)-8-[2-[1-[3-(2,4-dioxo-1,3-diazinan-1-yl)-7-fluoro-1-methylindazol-6-yl]-4-hydroxypiperidin-4-yl]acetyl]-8-azaspiro[4.5]decan-3-yl]-4-oxoquinazoline], for the setting “A375.10 cells, 24 h”, half-maximal degradation (DC50) was put at 28.9 nM. Moreover, under setting [1], the Emax worked out at 25.1%.
For the molecule `CCN(C)S(=O)(=O)Nc1ccc(F)c(Oc2ccc3ncn(CCC4CCN(C(=O)CN5CCC(c6ccc7c(C8CCC(=O)NC8=O)nn(C)c7c6)CC5)CC4)c(=O)c3c2)c1C#N` (stereo not drawn) [Example 144, 6-[2-cyano-3-[[ethyl(methyl)sulfamoyl]amino]-6-fluorophenoxy]-3-[2-[1-[2-[4-[3-(2,6-dioxopiperidin-3-yl)-1-methylindazol-6-yl]piperidin-1-yl]acetyl]piperidin-4-yl]ethyl]-4-oxoquinazoline], under “A375.10 cells, 24 h”, half-maximal degradation (DC50) was put at 28.4 nM. In addition, under setting [1], the maximal effect (Emax) was determined as 16.7%.
For `CCN(C)S(=O)(=O)Nc1ccc(F)c(Oc2ccc3ncn(CCN4CCN(C(=O)CN5CCC(c6ccc(NC7CCC(=O)NC7=O)cc6)CC5)CC4)c(=O)c3c2)c1C#N` (stereo not drawn) [Example 9, 6-[2-cyano-3-[[ethyl(methyl)sulfamoyl]amino]-6-fluorophenoxy]-3-[2-[4-[2-[4-[4-[(2,6-dioxopiperidin-3-yl)amino]phenyl]piperidin-1-yl]acetyl]piperazin-1-yl]ethyl]-4-oxoquinazoline], in that order: 41.9 nM and 9.87%.
With `Cn1nc(N2CCC(=O)NC2=O)c2cc(F)c(N3CCC(O)(CC(=O)N4CCC5(CC4)C[C@@H](n4cnc6ccc(Oc7c(F)ccc(NS(=O)(=O)C8CCCCC8)c7C#N)cc6c4=O)CO5)CC3)cc21` [Example 188, N-[2-cyano-3-[3-[(3R)-8-[2-[1-[3-(2,4-dioxo-1,3-diazinan-1-yl)-5-fluoro-1-methylindazol-6-yl]-4-hydroxypiperidin-4-yl]acetyl]-1-oxa-8-azaspiro[4.5]decan-3-yl]-4-oxoquinazolin-6-yl]oxy-4-fluorophenyl]cyclohexanesulfonamide], the Emax worked out at 27.3%. Further, where the note is “A375.10 cells, 24 h”, the DC50 is 40.6 nM.
As to `CCN(C)S(=O)(=O)Nc1ccc(F)c(Oc2ccc3ncn([C@H]4COC5(CCN(C(=O)CN6CCN(c7ccc(NC8CCC(=O)NC8=O)cc7F)CC6)CC5)C4)c(=O)c3c2)c1C#N` (stereo partly drawn) [Example 50, (3R)-3-[6-[2-cyano-3-[[ethyl(methyl)sulfamoyl]amino]-6-fluorophenoxy]-4-oxoquinazolin-3-yl]-8-[2-[4-[4-[(2,6-dioxopiperidin-3-yl)amino]-2-fluorophenyl]piperazin-1-yl]acetyl]-1-oxa-8-azaspiro[4.5]decane], the 50% degradation concentration (DC50) (A375.10 cells, 24 h) amounted to 128 nM. Also, the Emax under setting [1] is 13.4%.
For `CCN(C)S(=O)(=O)Nc1ccc(F)c(Oc2ccc3ncn([C@H]4COC5(CCN(C(=O)CN6CCN(c7ccc(C8CCC(=O)NC8=O)cc7F)CC6)CC5)C4)c(=O)c3c2)c1C#N` (stereo partly drawn) [Example 60, (3R)-3-[6-[2-cyano-3-[[ethyl(methyl)sulfamoyl]amino]-6-fluorophenoxy]-4-oxoquinazolin-3-yl]-8-[2-[4-[4-(2,6-dioxopiperidin-3-yl)-2-fluorophenyl]piperazin-1-yl]acetyl]-1-oxa-8-azaspiro[4.5]decane], in that order: 40.5 nM and 13%.
`CN(CC(F)F)S(=O)(=O)Nc1ccc(F)c(Oc2ccc3ncn(-c4cnc(N5CCN(C(=O)CN6CCC(c7ccc(N[C@@H]8CCC(=O)NC8=O)cc7F)CC6)CC5)nc4)c(=O)c3c2)c1C#N` [Example 119, 6-[2-cyano-3-[[2,2-difluoroethyl(methyl)sulfamoyl]amino]-6-fluorophenoxy]-3-[2-[4-[2-[4-[4-[[(3R)-2,6-dioxopiperidin-3-yl]amino]-2-fluorophenyl]piperidin-1-yl]acetyl]piperazin-1-yl]pyrimidin-5-yl]-4-oxoquinazoline]: the DC50 (A375.10 cells, 24 h) was determined as 46.9 nM. For the same molecule, under setting [1], the Emax came to 12.8%.
Where the note is “A375.10 cells, 24 h”, `CCN(C)S(=O)(=O)Nc1ccc(F)c(Oc2ccc3ncn(C4C5CN(C(=O)CN6CCC(c7ccc(NC8CCC(=O)NC8=O)cc7F)CC6)CC54)c(=O)c3c2)c1C#N` (stereo not drawn) [Example 25, 6-[2-cyano-3-[[ethyl(methyl)sulfamoyl]amino]-6-fluorophenoxy]-3-[3-[2-[4-[4-[(2,6-dioxopiperidin-3-yl)amino]-2-fluorophenyl]piperidin-1-yl]acetyl]-3-azabicyclo[3.1.0]hexan-6-yl]-4-oxoquinazoline] came in with a DC50 of 34.8 nM. The Emax under setting [1] turned out to be 11.9%.
Turning to `CCN(C)S(=O)(=O)Nc1ccc(F)c(Oc2ccc3ncn([C@H]4COC5(CCN(C(=O)CC6CCN(c7cc8c(cc7F)c(N7CCC(=O)NC7=O)nn8C)CC6)CC5)C4)c(=O)c3c2)c1C#N` [Example 180, (3R)-3-[6-[2-cyano-3-[[ethyl(methyl)sulfamoyl]amino]-6-fluorophenoxy]-4-oxoquinazolin-3-yl]-8-[2-[1-[3-(2,4-dioxo-1,3-diazinan-1-yl)-5-fluoro-1-methylindazol-6-yl]piperidin-4-yl]acetyl]-1-oxa-8-azaspiro[4.5]decane], the Emax stood at 20.6%. This molecule yielded a DC50 (A375.10 cells, 24 h) of 9.62 nM.
As for `CCN(C)S(=O)(=O)Nc1ccc(F)c(Nc2ccc3ncn([C@H]4COC5(CCN(C(=O)CN6CCC(c7ccc(NC8CCC(=O)NC8=O)cc7F)CC6)CC5)C4)c(=O)c3c2)c1C#N` (single isomer, unassigned) [Example 82], half-maximal degradation (A375.10 cells, 24 h) (DC50) was put at 20.7 nM. The Emax under setting [1] was 6.45%.
In the same order, the values of `CCN(C)S(=O)(=O)Nc1ccc(F)c(Oc2ccc3ncn(-c4ccc(N5CCN(C(=O)CN6CCC(c7ccc(N[C@H]8CCC(=O)NC8=O)cc7F)CC6)CC5)nc4)c(=O)c3c2)c1C#N` [Example 94, 6-[2-cyano-3-[[ethyl(methyl)sulfamoyl]amino]-6-fluorophenoxy]-3-[6-[4-[2-[4-[4-[[(3S)-2,6-dioxopiperidin-3-yl]amino]-2-fluorophenyl]piperidin-1-yl]acetyl]piperazin-1-yl]pyridin-3-yl]-4-oxoquinazoline] are 21.5 nM and 10.5%.
In the same order, the values of `N#Cc1c(NS(=O)(=O)N2CCC2)ccc(F)c1Oc1ccc2ncn(-c3cnc(N4CCN(C(=O)CN5CCC(c6ccc(N[C@H]7CCC(=O)NC7=O)cc6F)CC5)CC4)nc3)c(=O)c2c1` [Example 130, N-[2-cyano-3-[3-[2-[4-[2-[4-[4-[[(3S)-2,6-dioxopiperidin-3-yl]amino]-2-fluorophenyl]piperidin-1-yl]acetyl]piperazin-1-yl]pyrimidin-5-yl]-4-oxoquinazolin-6-yl]oxy-4-fluorophenyl]azetidine-1-sulfonamide] are 16.5 nM and 7.25%.
Take `CCN(C)S(=O)(=O)Nc1ccc(F)c(C(=O)c2ccc3ncn(-c4cnc(N5CCN(C(=O)CN6CCC(c7ccc(N[C@@H]8CCC(=O)NC8=O)cc7F)CC6)CC5)nc4)c(=O)c3c2)c1F` [Example 141, 3-[2-[4-[2-[4-[4-[[(3R)-2,6-dioxopiperidin-3-yl]amino]-2-fluorophenyl]piperidin-1-yl]acetyl]piperazin-1-yl]pyrimidin-5-yl]-6-[3-[[ethyl(methyl)sulfamoyl]amino]-2,6-difluorobenzoyl]-4-oxoquinazoline]: half-maximal degradation (A375.10 cells, 24 h) (DC50) was put at 55 nM. Also, under setting [1], the Emax worked out at 26.3%.
Regarding `CCN(C)S(=O)(=O)Nc1ccc(F)c(Oc2ccc3ncn([C@H]4COC5(CCN(C(=O)CC6(O)CCN(c7cc8c(cc7F)c(N7CCC(=O)NC7=O)nn8C)CC6)CC5)C4)c(=O)c3c2F)c1C#N` (single isomer, unassigned) [Example 174], half-maximal degradation (A375.10 cells, 24 h) (DC50) was put at 25.6 nM. Moreover, the Emax under setting [1] stood at 21.2%.
As for `CCN(C)S(=O)(=O)Nc1ccc(F)c(Oc2ccc3ncn(C4CC5(CCN(C(=O)CN6CCC(c7ccc8c(C9CCC(=O)NC9=O)nn(C)c8c7)CC6)CC5)C4)c(=O)c3c2)c1C#N` (stereo not drawn) [Example 149, 6-[2-cyano-3-[[ethyl(methyl)sulfamoyl]amino]-6-fluorophenoxy]-3-[7-[2-[4-[3-(2,6-dioxopiperidin-3-yl)-1-methylindazol-6-yl]piperidin-1-yl]acetyl]-7-azaspiro[3.5]nonan-2-yl]-4-oxoquinazoline], half-maximal degradation (A375.10 cells, 24 h) (DC50) was put at 10.7 nM. The Emax under setting [1] turned out to be 11.5%.
In the same order, the values of `CCN(C)S(=O)(=O)Nc1ccc(F)c(Oc2ccc3ncn([C@@H]4COC5(CCN(C(=O)CC6(O)CCN(c7cc8c(cc7F)c(N7CCC(=O)NC7=O)nn8C)CC6)CC5)C4)c(=O)c3c2)c1C#N` [Example 228, (3S)-3-[6-[2-cyano-3-[[ethyl(methyl)sulfamoyl]amino]-6-fluoro-phenoxy]-4-oxo-quinazolin-3-yl]-8-[2-[1-[3-(2,4-dioxohexahydropyrimidin-1-yl)-5-fluoro-1-methyl-indazol-6-yl]-4-hydroxy-4-piperidyl]acetyl]-1-oxa-8-azaspiro[4.5]decane] are 18.6 nM and 7.82%.
In the same order, the values of `CO[C@H]1CCN(S(=O)(=O)Nc2ccc(F)c(Oc3ccc4ncn([C@H]5COC6(CCN(C(=O)CC7(O)CCN(c8cc9c(cc8F)c(N8CCC(=O)NC8=O)nn9C)CC7)CC6)C5)c(=O)c4c3)c2C#N)C1` [Example 176, (3S)—N-[2-cyano-3-[3-[(3R)-8-[2-[1-[3-(2,4-dioxo-1,3-diazinan-1-yl)-5-fluoro-1-methylindazol-6-yl]-4-hydroxypiperidin-4-yl]acetyl]-1-oxa-8-azaspiro[4.5]decan-3-yl]-4-oxoquinazolin-6-yl]oxy-4-fluorophenyl]-3-methoxypyrrolidine-1-sulfonamide] are 20.5 nM and 24.8%.
Molecule `CCN(C)S(=O)(=O)Nc1ccc(F)c(Oc2ccc3ncn(CCC4CCN(C(=O)CN5CCC(c6ccc(C7CCC(=O)NC7=O)cc6F)CC5)CC4)c(=O)c3c2)c1C#N` (stereo not drawn) [Example 2, 6-[2-cyano-3-[[ethyl(methyl)sulfamoyl]amino]-6-fluorophenoxy]-3-[2-[1-[2-[4-[4-(2,6-dioxopiperidin-3-yl)-2-fluorophenyl]piperidin-1-yl]acetyl]piperidin-4-yl]ethyl]-4-oxoquinazoline] came in with a DC50 (A375.10 cells, 24 h) of 48.6 nM. The Emax under setting [1] worked out at 13.5%.
